Data on seven compounds can be found in ChEMBL document CHEMBL1201862, “PubChem BioAssay data set” (2004).

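These data come from cells grown in 96-well plates and exposed to compound for 48 hours at five concentrations. GI50 = concentration required for 50% inhibition of growth.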 Active and inactive are the calls of the source. Cut-off read from the data, not from the text of the source: active = GI50 up to about 1.1 µM and inactive = higher. Where only a bound is given, the exact number is not on record here.

Assay in all cases: NCI tumour cell line growth inhibition, 48 h
Assay [1] concerns SN12C.
Assay [2] has as its system HCC 2998.
Assay [3] deals with M19-MEL.
Assay [4] relates to SW-620.
For assay [5], the system named is DMS-114.
Assay [6] concerns DLD-1.
Assay [7] deals with NCI-H522.
Assay [8] concerns A549.
The test system of assay [9] is MCF7.
Assay [10] deals with SF-539.
Assay [11] deals with SK-MEL-5.
In assay [12] the test system is NCI-H23.
In assay [13] the test system is SK-MEL-2.
Assay [14] has as its system M14.
The subject of assay [15] is MDA-MB-435.
The subject of assay [16] is BT-549.
For assay [17], the system named is SR.
In assay [18] the test system is MDA-N.
The test system of assay [19] is Hs-578T.
The subject of assay [20] is MDA-MB-231.

In the case of `COC(=O)C(C/C=C(\C)c1ccccc1)C(C)=O` (configuration not stated), the GI50 in assay [1] was > 100 µM (inactive); in assay [2] it was > 100 µM (inactive); in assay [3], 59.8 µM (inactive); in assay [4], > 100 µM (inactive); in [5], 34.9 µM (inactive); in assay [6] it was 89.5 µM (inactive). Also, the GI50 in assay [7] was 76.7 µM (inactive); in [8], 53.1 µM (inactive); in [9] it was > 70.3 µM (inactive); in [10] it was > 100 µM (inactive); in [11], 59.6 µM (inactive); in assay [12], 90.6 µM (inactive). Besides, the GI50 in assay [13] was 52.7 µM (inactive).
As for `COc1cccc(-c2nc3c(C(=O)NCCN(C)C)cccc3[nH]2)c1`, the GI50 in [1] is 17.4 µM (inactive); in assay [2], 15.6 µM (inactive); in assay [3], 16.3 µM (inactive); in assay [4] it was 12.7 µM (inactive); in assay [5] it was 15.3 µM (inactive); in assay [6] it was 18.5 µM (inactive). For the same compound, the GI50 in assay [7] was 15.2 µM (inactive); in [8], 18.5 µM (inactive); in assay [9], 21.8 µM (inactive); in assay [10] it was 17.1 µM (inactive); in assay [11], 16.7 µM (inactive); in assay [12], 19.2 µM (inactive). For the same compound, the GI50 in [13] was 18.8 µM (inactive).
As for `CC(C)(C)c1nc2c(o1)/C(=N\c1ccc(F)cc1)c1ccccc1C2=O`, the GI50 in assay [1] is 5.69 µM (inactive); in assay [2] it was 9.12 µM (inactive); in assay [3], 1.13 µM (inactive); in assay [4] it was 4.27 µM (inactive); in [14] it was 2.96 µM (inactive); in assay [15] it was 2.05 µM (inactive). In addition, the GI50 is 0.902 µM (active) in assay [5]; 4.11 µM (inactive) in [6]; 3.45 µM (inactive) in assay [16]; > 43.5 µM (inactive) in [17]; 5.36 µM (inactive) in assay [7]; 2.37 µM (inactive) in assay [18]. The GI50 was 6.49 µM (inactive) in [8]; 4.13 µM (inactive) in [9]; 4.6 µM (inactive) in [10]; 6.68 µM (inactive) in assay [19]; 30.2 µM (inactive) in assay [20]; 1.7 µM (inactive) in assay [11]. Besides, the GI50 in [12] was 2.26 µM (inactive); in [13] it was 2.67 µM (inactive).
Turning to `O=C(c1ccccc1O)c1cc(-c2ncc3c(=O)c4ccccc4oc3n2)c(-c2ccccc2O)[nH]c1=O`, the GI50 in assay [1] was 23.8 µM (inactive); in assay [2], 17 µM (inactive); in assay [3] it was 25.5 µM (inactive); in assay [4], 19.2 µM (inactive); in assay [5], 28.8 µM (inactive); in assay [6], 24.4 µM (inactive). Moreover, the GI50 in [7] was 25.2 µM (inactive); in assay [8], 25.5 µM (inactive); in assay [9], 14.3 µM (inactive); in assay [10] it was 1.47 µM (inactive); in [11], 12 µM (inactive); in assay [12], 19.7 µM (inactive). Besides, in assay [13], the GI50 was 22.1 µM (inactive).
As for `Nc1ncnc2c1ncn2C1C=C(CO)C(O)C1O` (configuration not stated), the GI50 in [1] is 7.03 µM (inactive); in assay [2], 4.72 µM (inactive); in assay [3], 40.9 µM (inactive); in assay [4], 2.06 µM (inactive); in assay [14], 9.57 µM (inactive); in assay [15], 3.08 µM (inactive). Moreover, the GI50 in [5] was 1.99 µM (inactive); in [6], 5.6 µM (inactive); in assay [16], 1.99 µM (inactive); in assay [17], 0.0254 µM (active); in [7], 3.99 µM (inactive); in assay [18], 3.37 µM (inactive). Also, the GI50 is 14.9 µM (inactive) in assay [8]; 0.197 µM (active) in [9]; 4.26 µM (inactive) in [10]; 83.6 µM (inactive) in assay [19]; 2.19 µM (inactive) in [20]; 20.3 µM (inactive) in assay [11]. Moreover, the GI50 in assay [12] is 2.83 µM (inactive); in assay [13] it was 29.7 µM (inactive).
With `COC(=O)[C@]1(c2ccc(N(C)C)cc2OC)C[C@@H]2CCCN(CCc3c1[nH]c1ccccc31)C2`, the GI50 is 19.3 µM (inactive) in assay [1]; 15.3 µM (inactive) in assay [2]; 16.4 µM (inactive) in [3]; 40.3 µM (inactive) in [4]; 16.6 µM (inactive) in assay [5]; 27.2 µM (inactive) in [6]. Moreover, the GI50 in assay [7] is 17.4 µM (inactive); in assay [8], 34.4 µM (inactive); in assay [9], 15.9 µM (inactive); in [10] it was 20.5 µM (inactive); in assay [11], 17.2 µM (inactive); in assay [12], 18.9 µM (inactive). The GI50 in assay [13] is 20.3 µM (inactive).
As to `Nc1ccc(-c2nc3ccccc3s2)cc1`, the GI50 in [1] was 19.1 µM (inactive); in assay [2], 59.7 µM (inactive); in assay [3], 30.8 µM (inactive); in assay [4], 20 µM (inactive); in assay [14], 18.6 µM (inactive); in [15], 17.9 µM (inactive). For the same compound, the GI50 is 17.7 µM (inactive) in assay [5]; 26.4 µM (inactive) in assay [6]; 14.9 µM (inactive) in assay [16]; 18.4 µM (inactive) in assay [17]; 20.6 µM (inactive) in [7]; 19.5 µM (inactive) in assay [18]. Also, the GI50 in assay [8] is 23 µM (inactive); in assay [9], 19.1 µM (inactive); in [10], 23 µM (inactive); in [19] it was 36.1 µM (inactive); in assay [20], 17.9 µM (inactive); in assay [11], 21.6 µM (inactive). Further, the GI50 was 18.8 µM (inactive) in [12] and 25.3 µM (inactive) in assay [13].
